Experimental data taken from the METLIN SMRT retention time set (Domingo-Almenara et al. 2019).

Assay: gradient 5% acetonitrile 3 min, to 50% in 2 min, to 85% in 15 min, held 3 min, 100 µL/min
Conditions: column: Zorbax Extend-C18 2.1 x 50 mm; eluents: water / acetonitrile, 0.1% formic acid
In short: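 Each retention time is based on an adduct peak selected computationally and verified by manual inspection. Measurements used HPLC–quadrupole time-of-flight mass spectrometry in positive and negative ionization mode on mixtures of ~100 pure standards. Chromatography ran on a Zorbax Extend-C18 column (2.1 × 50 mm, 1.8 μm) at 100 μL/min with water and acetonitrile, each containing 0.1% formic acid, and dead and dwell volumes of 40 μL and 900 μL.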

SMILES | RP-LC retention time [s]
COc1ccc(CC(=O)Nc2ccc(-c3nc(Cn4cc(C)cn4)c(C)o3)cc2)cc1 | 889
COc1ccc(C)cc1NC(=O)Cn1nc2cc(-c3ccccn3)nc(C)n2c1=O | 804
COC(=O)c1c(C)[nH]c(C(=O)N2CCC(CC(=O)NCc3ccc(Cl)cc3)CC2)c1C | 774
Cn1cnc(S(=O)(=O)N2c3ccccc3CC2c2nnc(C3CCOCC3)o2)c1 (stereo not drawn) | 680
Cc1cc(Br)ccc1NC(=O)C1CCCN(c2ncnc3c2nc2n3CCCCC2)C1 (stereo not drawn) | 895
Cc1ccc(F)cc1NC(=O)c1cc(C2CC2)n2nccc2n1 | 1140
Cc1cc(C)c(NC(=O)Cn2nc3c4ccccc4ncn3c2=O)c(C)c1 | 671
CCc1ccc(-n2nc(C)c3c(C(F)(F)F)cc(OCC(=O)N4CCCC4)nc32)cc1 | 1220
CNC(=O)c1cc2n(n1)CCCN(Cc1ccc(C)cc1)C2=O | 699
COc1ccc(NC(=O)C2CCN(S(=O)(=O)c3ccc4c(c3)sc(=O)n4C)CC2)cc1Cl | 880
Cc1nnc(C2CCCCCN2C(=O)c2ocnc2C)o1 (stereo not drawn) | 628
Cc1ccc(NC(=O)N2C[C@@H](F)C[C@H]2C(=O)N2CCCCC2)cc1F | 755
CS(=O)(=O)Nc1ccc(CC(=O)NCC(F)(F)F)cc1 | 623
CCCCNc1nc(-c2ccc(OC)cc2)nc2ccccc12 | 807
Cc1ccccc1Nc1c(-c2ccccc2O)nc2ccc(Br)cn12 | 1050
Cc1ccc2[nH]c(=O)c(CCC(=O)N3CCN(C4CCCCC4)CC3)cc2c1 | 619
COc1ccc(NC(=O)Cn2cccc2-c2nnc(-c3ccccc3)o2)cc1OC | 850
O=C(NCc1csc(-c2cccs2)n1)C1CCN(S(=O)(=O)c2ccccc2F)CC1 | 860
O=C(c1ccco1)N1CCCC(c2ccnc(-c3ccccc3)n2)C1 (stereo not drawn) | 962
CCn1cnc2cc(-c3noc(CNC(=O)c4ccc(C)cc4)n3)ccc21 | 654
O=C1CC(c2noc(-c3ccc(F)cc3)n2)CN1Cc1ccccc1 (stereo not drawn) | 931
CN1C(=O)Cc2cc(S(=O)(=O)NCc3ccc4c(c3)CCN4C(=O)c3ccc(Cl)cc3)ccc21 | 867

SMILES | RP-LC retention time [s]
COCCCN1C(=O)c2cc(-c3ccc(OC)cc3)nn2CC1(C)C(=O)NCc1ccccc1 (stereo not drawn) | 826
Cc1cccc(CNC(=O)CCc2c(-c3ccc(Br)cc3)nc3ccccn23)c1 | 718
O=c1[nH]c2ccccc2nc1-c1cc(Cl)ccc1NS(=O)(=O)c1ccccc1 | 895
COc1ccc(-c2ncc3c(=O)n(CC(=O)Nc4cc(OC)cc(OC)c4)cnc3n2)cc1 | 854
CCN1CCN(C(=O)CN2C(=O)COc3ccc(C(=O)N4CCCC4)cc32)CC1 | 571
O=C(COc1cc(O)c2c(=O)c3ccccc3oc2c1)c1ccc(Cl)cc1 | 1230
O=C(Nc1ccccc1)N1CCc2nnc(C3CC3)n2CC1 | 596
CCOC(=O)N1CCN(c2nc(F)c(F)c(S(=O)(=O)CCN3C(=O)CCC3=O)c2F)CC1 | 836
CCN1c2cc(F)ccc2C(=O)NC12CCN(C(=O)c1ccc(OC)c(OC)c1)CC2 | 740
COc1ccc(NC(=O)c2nc(C)oc2C)cc1OC | 750
O=C(Nc1cc(C(F)(F)F)cc(C(F)(F)F)c1)Nc1c(Br)cc(Br)cc1-c1nn[nH]n1 | 1130
CCOC(=O)COC(=O)c1cn(-c2ccc(CC)cc2)c(=O)c2ccccc12 | 737
CN(C)S(=O)(=O)c1ccc2c(c1)N(CC(=O)N1CCCCC1)C(=O)C1CCCCN21 (stereo not drawn) | 812
Cc1cc(N2CCN(C(=O)c3cccc(C(F)(F)F)c3)CC2)nc2nncn12 | 627
CCCS(=O)(=O)c1nc2ccc(NS(=O)(=O)c3ccc4c(c3)oc(=O)n4C)cc2s1 | 847
Cn1nc(C(=O)N2CCCC(C(=O)NC3CC3)C2)c2c1CCN(C(=O)c1ccccc1Cl)C2 (stereo not drawn) | 648
Cc1nn(-c2ccccc2)c(C)c1S(=O)(=O)N1CCC(C(=O)Nc2cccc(C#N)c2)CC1 | 958
Cc1ccc(NC(=O)N2C[C@@H](F)C[C@H]2C(=O)N2CCc3ccccc3C2)cc1Cl | 895
COCCC(=O)NC1CCN(C2=NS(=O)(=O)C(c3ccc(C(C)C)cc3)=C2C)CC1 | 813
COc1cccc(NC(=O)N2CCN(c3cc(C)nc(N4CCOCC4)n3)CC2)c1 | 628
COc1ccc(OCc2nn3c(-c4ccc(OC)cc4)nnc3s2)cc1 | 947
Cc1oc(-c2ccc(NC(=O)Cc3cccc(F)c3)cc2)nc1Cn1cccn1 | 814

SMILES | RP-LC retention time [s]
Cc1cccc(NS(=O)(=O)c2c[nH]c3ncccc23)c1 | 726
Cc1ccc(N2CCC(NC(=O)c3ccc(F)c(F)c3)C2=O)cc1C (stereo not drawn) | 918
COc1ccc(C2CC(=O)N(c3cccc(OC)c3)C(=O)C2)cc1 | 860
Cc1nn(-c2ccc(Nc3ccc(NC(=O)c4ccccc4F)cc3)nn2)c(C)c1C | 802
O=C(c1ccoc1)N1CCCC1c1nc(C2CCOCC2)no1 (stereo not drawn) | 670
CCCn1nc(CNC(=O)Cc2cccs2)c2ccccc21 | 847
CN(C)C(=O)c1csc(S(=O)(=O)N2CCC(C(=O)N3CCN(c4ccccc4)CC3)CC2)c1 | 768
Cc1nn(-c2ccccc2)c(C)c1S(=O)(=O)N1CCC(C(=O)Nc2ccccc2F)CC1 | 950
CS(=O)(=O)N1CC(c2nc(-c3cccnc3)no2)C2(CCOCC2)C1 (stereo not drawn) | 630
COc1ccc(-c2nc3cnccn3c2Nc2ccc(C)cc2C)cc1 | 971
COC(=O)C1=CN(c2ccc(C)cc2)c2ccccc2S1(=O)=O | 862
Cc1cccc(S(=O)(=O)Nc2ccc(-c3cn4ccc(C)nc4n3)cc2)c1 | 659
CN(C)C(CNC(=O)Cc1cccs1)c1ccccc1Cl (stereo not drawn) | 550
COc1ccc(C2C(C(=O)NCCC(C)C)c3cc(OC)c(OC)cc3C(=O)N2C)cc1 (stereo not drawn) | 804
O=C(Cc1csc2nc(-c3cccc(Br)c3)cn12)Nc1cccc(F)c1 | 1010
Cc1noc(CN2CCN(C3CCN(Cc4cc(C(F)(F)F)ccc4Cl)C3)C2=O)n1 (stereo not drawn) | 660
Cn1c(=O)c(=O)n(C)c2cc(NC(=O)c3cccs3)ccc21 | 653
Fc1ccc(-c2nc(-c3cn(Cc4cccc(F)c4)nn3)no2)cc1 | 1010
c1ccc(-c2nc(-c3cccc(-c4ccn[nH]4)c3)no2)nc1 | 739
CCn1cc(-c2ccc(Cl)cc2)cc1C(=O)NCCCN(C)C | 694
CN1C(=O)c2cccc3c(C(=O)c4ccccc4)ccc(c23)C1=O | 921
CCc1nnc([C@@H]2CC(F)(F)CN2C(=O)Cc2c(C)noc2C)o1 | 681

SMILES | RP-LC retention time [s]
CCN(CC)c1ccc(C(=O)N2CCc3nc[nH]c3C2)cc1 | 550
O=C(NCc1cccc(Br)c1)C(=O)c1ccc[nH]1 | 874
COc1ccc(NS(=O)(=O)c2cc(-c3c(C)noc3NC(C)=O)ccc2OC)c(OC)c1 | 724
O=C(O)Cn1ncc2ccccc2c1=O | 572
Cc1csc(-c2cc(S(=O)(=O)N3CCC(Cc4ccccc4)CC3)c(C)n2C)n1 | 1300
C=C1CC(COc2cc(=O)oc3ccccc23)(c2ccccc2)OC1=O (stereo not drawn) | 885
CCc1nc(NC(=O)Cn2nc3c(cc2=O)CCCC3)sc1C | 764
O=C(Nc1cnc(N2CCCCCC2)nc1)c1cccs1 | 859
CCOc1nc2ccccc2nc1N1CCCC(C(=O)NCc2cccnc2)C1 (stereo not drawn) | 684
CCOc1ccc(CC(=O)N2CCN(c3cc(CC)n4cnnc4n3)CC2)cc1 | 634
COc1ccc(CNC(=O)Cn2c(=O)c3cc(-c4ccco4)nn3c3ncccc32)cc1 | 754
CO[C@H]1CN(C2CCN(S(=O)(=O)c3ccc(C#N)cc3)CC2)[C@H]1c1cccnc1 | 609
CCc1cc(=O)n(CC(=O)Nc2ccccc2C)c(N)n1 | 639
Cc1ccc(S(=O)(=O)N2CCCC(CCC(=O)NCc3ccccc3)C2)cc1 (stereo not drawn) | 960
CC(=O)N1CCC(N2C(=O)C3(CCCC3)C2c2scnc2C)CC1 (stereo not drawn) | 664
O=C(NC1CC1)c1ccc(OCC2CCN(C(=O)Cc3ccc(Cl)cc3)CC2)cc1 | 868
Cc1ccc2cc(CCC(=O)NC3CCN(Cc4ccccc4)CC3)c(=O)[nH]c2c1 | 614
O=C1COc2ccc(S(=O)(=O)N3CCC(C(=O)NCCc4ccccc4)CC3)cc2N1 | 740
Cc1oc2cc3oc(=O)c(CCC(=O)N4CCN(c5ccccn5)CC4)c(C)c3cc2c1C | 682
CCOC(=O)c1c(N)n(CCCOC)c2nc3ccccc3nc12 | 645
O=C(NCc1ccccc1)C1CCN(S(=O)(=O)c2cc(C(=O)N3CCCC3)cs2)CC1 | 760
CC1CCC(NC(=O)c2cc3sc(Cl)cc3n2C)CC1 (stereo not drawn) | 1230
